According to PubChem BioAssay AID2060600 (Molecular Pharmacology Branch, DTP, NCI, 2025):

Test system: 996289-038-R-J1-PDC complex spheroid viability
Test: Anticancer human tumor 996289-038-R-J1-PDC patient-derived colon adenocarcinoma cell line growth inhibition [CLK]
Details: for IC50: curve of first compound; for viability, T/C: stronger effect = lower value; active = viability on the fitted dose curve at most 10% of control; inactive = the rest
In short: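 Multi-cell-type spheroids combined patient-derived tumor cells with HUVEC endothelial cells and human mesenchymal stem cells. Paired agents were dosed in half-log steps down from about clinical Cmax, or from 10 microM where Cmax was unknown.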

[1] = second compound 0.0316 µM, first compound 0.0316 µM
[2] = second compound 0.0316 µM, first compound 0.1 µM
[3] = second compound 0.0316 µM, first compound 0.316 µM
[4] = second compound 0.0316 µM, first compound 1 µM
[5] = second compound 0.0316 µM, first compound 3.16 µM
[6] = second compound 0.0316 µM, first compound 10 µM
[7] = second compound 0.1 µM, first compound 0.0316 µM
[8] = second compound 0.1 µM, first compound 0.1 µM
[9] = second compound 0.1 µM, first compound 0.316 µM
[10] = second compound 0.1 µM, first compound 1 µM
[11] = second compound 0.1 µM, first compound 3.16 µM
[12] = second compound 0.1 µM, first compound 10 µM
[13] = second compound 0.316 µM, first compound 0.0316 µM
[14] = second compound 0.316 µM, first compound 0.1 µM
[15] = second compound 0.316 µM, first compound 0.316 µM
[16] = second compound 0.316 µM, first compound 1 µM
[17] = second compound 0.316 µM, first compound 3.16 µM
[18] = second compound 0.316 µM, first compound 10 µM
[19] = second compound 1 µM, first compound 0.0316 µM
[20] = second compound 1 µM, first compound 0.1 µM
[21] = second compound 1 µM, first compound 0.316 µM
[22] = second compound 1 µM, first compound 1 µM
[23] = second compound 1 µM, first compound 3.16 µM
[24] = second compound 1 µM, first compound 10 µM
[25] = second compound 3.16 µM, first compound 0.0316 µM
[26] = second compound 3.16 µM, first compound 0.1 µM
[27] = second compound 3.16 µM, first compound 0.316 µM
[28] = second compound 3.16 µM, first compound 1 µM
[29] = second compound 3.16 µM, first compound 3.16 µM
[30] = second compound 3.16 µM, first compound 10 µM
[31] = second compound 10 µM, first compound 0.0316 µM
[32] = second compound 10 µM, first compound 0.1 µM
[33] = second compound 10 µM, first compound 0.316 µM
[34] = second compound 10 µM, first compound 1 µM
[35] = second compound 10 µM, first compound 3.16 µM
[36] = second compound 10 µM, first compound 10 µM
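Note: spheroids exposed to the agents for 7 days before readout.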

COc1ccc([C@@H](O)c2cc(-c3ncnc4cc(N5CCOCC5)ccc34)c(F)cc2Cl)nn1 + CN1CCN(c2cc(C(=O)Nc3cc4cc(-c5cnn(C)c5)ccc4cn3)ccn2)CC1
> 10 µM: IC50 (second compound 0.0316 µM)
< 0.0316 µM: IC50 (second compound 1 µM) | IC50 (second compound 3.16 µM) | IC50 (second compound 10 µM)
active: viability, T/C [19] 3.25% | viability, T/C [20] 3.83% | viability, T/C [21] 3.78% | viability, T/C [22] 4.19% | viability, T/C [23] 3.66% | viability, T/C [24] 3.61% | viability, T/C [25] 1.19% | viability, T/C [26] 0.85% | viability, T/C [27] 1.09% | viability, T/C [28] 1.26% | viability, T/C [29] 2.9% | viability, T/C [30] 2.02% | viability, T/C [31] 0.92% | viability, T/C [32] 0.41% | viability, T/C [33] 1.74% | viability, T/C [34] 0.52% | viability, T/C [35] 0.52% | viability, T/C [36] 0.65%
6.69 µM: IC50 (second compound 0.1 µM)
3.19 µM: IC50 (second compound 0.316 µM)
inactive: viability, T/C [1] 93.2% | viability, T/C [2] 94.8% | viability, T/C [3] 91.7% | viability, T/C [4] 85.7% | viability, T/C [5] 76.6% | viability, T/C [6] 50.2% | viability, T/C [7] 85.3% | viability, T/C [8] 95.1% | viability, T/C [9] 87.8% | viability, T/C [10] 79.8% | viability, T/C [11] 67.7% | viability, T/C [12] 40.8% | viability, T/C [13] 61.1% | viability, T/C [14] 64.8% | viability, T/C [15] 61.9% | viability, T/C [16] 59.8% | viability, T/C [17] 49.8% | viability, T/C [18] 27.1%

CCCS(=O)(=O)Nc1ccc(F)c(C(=O)c2c[nH]c3ncc(-c4ccc(Cl)cc4)cc23)c1F + CNC(=O)c1ccc(Nc2nc(OC3CCCC3)c3c(-c4ccc5nc(C)oc5c4)c[nH]c3n2)c(OC)c1
5.68 µM: IC50 (second compound 1 µM)
4.51 µM: IC50 (second compound 10 µM)
inactive: viability, T/C [1] 125% | viability, T/C [2] 105% | viability, T/C [3] 120% | viability, T/C [4] 131% | viability, T/C [5] 124% | viability, T/C [6] 83.4% | viability, T/C [7] 116% | viability, T/C [8] 133% | viability, T/C [9] 124% | viability, T/C [10] 118% | viability, T/C [11] 119% | viability, T/C [12] 76.7% | viability, T/C [13] 81.2% | viability, T/C [14] 84.5% | viability, T/C [15] 82.8% | viability, T/C [16] 84.8% | viability, T/C [17] 82.7% | viability, T/C [18] 48% | viability, T/C [19] 73.2% | viability, T/C [20] 70% | viability, T/C [21] 64.9% | viability, T/C [22] 70.6% | viability, T/C [23] 64.8% | viability, T/C [24] 35.6% | viability, T/C [25] 63.8% | viability, T/C [26] 67.5% | viability, T/C [27] 64.1% | viability, T/C [28] 68.1% | viability, T/C [29] 58.4% | viability, T/C [30] 31.8% | viability, T/C [31] 62.9% | viability, T/C [32] 60.2% | viability, T/C [33] 59.8% | viability, T/C [34] 66.9% | viability, T/C [35] 60.3% | viability, T/C [36] 26.1%
9.36 µM: IC50 (second compound 0.316 µM)
> 10 µM: IC50 (second compound 0.0316 µM) | IC50 (second compound 0.1 µM)
4.68 µM: IC50 (second compound 3.16 µM)
